Experimental data reported in patent publication US4760062A, “Pharmaceutical compositions of N-heterocyclic benzenesulfonamides and their use” (DROPIC, Societe Civile de gestion de droits de Propriete …, priority 1983, dated 1988).
Read-outs that look alike come from different tables or passages of the source.

How the values were obtained:
mice [1] = experiment: 4 plates test (suppressive conditioning), 25 mg/kg orally, increase in punished passages with respect to control; format: in vivo, Swiss male mice; details: Mus musculus, po, 1 h, male mice, 25 mg/kg single oral dose, 60 minutes before the test; read-out: % increase in the number of punished passages with respect to the control batch
Excerpt: The method is based on the attenuation or suppression of the anxiety state induced by electric shocks on movement of the animals (mice) into a special enclosure.
The anxiolytic effect is manifested by an increase in movements at doses not affecting motility.
For each dose, the groups are of 15 animals which have not undergone the test.
The apparatus was of the Apelex type.
It is composed of a parallelepipedic box of white plastic material, provided with a lid of transparent plexiglas, mobile by means of two hinges. The floor, which is rectangular, is constituted by four plates of conductive metal of which the distance between one another and the walls of the box is of 0.5 cm.
These plates are connected to an Apelex impulse generator. The potential difference when there is no impulse is, nil between two plates on a diagonal and is of 180 Volts between two adjacent plates. A trigger enables that a constant electrical current pulse be sent (of 0 to 2 milliamperes) for a selected time (from 0.1 to 5 seconds).
The operation is carried out in a silent area at constant temperature, the experimenter overlooking the box so that he can follow all the movements of the mice placed on one of the plates.
For each animal, the experiment is carried out according to the following modalities:
preliminary exploration of 15 seconds, without electric shock;
punished exploration (electric shock for each movement between two ajdacent plates) for 60 seconds.
The electric shocks have a duration of 0.5 seconds and an intensity of 0.6 milliampere.
The controls receive only carboxymethylcellulose.
The results are expressed as percentage of increase in the number of punished passages with respect to the control batch (increase percentage).

mice [2] = details: mouse, in vivo
[3] = Acute toxicity (LD0, LD50, LD100); details: mouse, in vivo
mice [4] = experiment: Acute toxicity (LD0, LD50, LD100); details: for ratio between the effective dose and the toxicity: mouse, in vivo

Q: For `COc1cc(OC)c(S(=O)(=O)N2CCN(Cc3ccccc3)CC2)cc1S(C)(=O)=O` [Compound 1213], which change in vivo at 25 mg/kg (mice [1]) is on record?
A: Its change in vivo at 25 mg/kg is 13%.

Q: Which change in vivo at 25 mg/kg (mice [1]) does the source give for `COc1cc(OC)c(S(=O)(=O)N2CCNCC2)cc1OC` [Compound 1243] here?
A: Its change in vivo at 25 mg/kg is 18%.

Q: What about the “ratio between the effective dose and the toxicity” value (mice [2]) of the same molecule?
A: The value was “satisfactory”.

Q: What about the LD50 ([3]; iv) of the same molecule?
A: The LD50 was 200 mg/kg.

Q: What about the LD0 (mice [4]; mice, route IV) of the same molecule?
A: Its LD0 is 200 mg/kg.

Q: What about the LD100 (mice [4]; mice, route IV) of the same molecule?
A: Its LD100 is 325 mg/kg.

Q: Which results are given for `COc1ccc(Cl)cc1S(=O)(=O)N1CCN(Cc2ccccc2)CC1` [Compound 1245]?
A: ratio between the effective dose and the toxicity (mice [2]): satisfactory; LD50 ([3]; ip): > 2000 mg/kg; LD0 (mice [4]; mice, route IP): > 2 000 mg/kg; LD100 (mice [4]; mice, route IP): > 2 000 mg/kg

Q: Which change in vivo at 25 mg/kg (mice [1]) does the source give for `COc1cc(OC)c(S(=O)(=O)N2CCN(C)CC2)cc1OC` [Compound 1260] here?
A: The change in vivo at 25 mg/kg was 31%.

Q: For `COc1ccc(Cl)cc1S(=O)(=O)N1CCN(CCO)CC1` [Compound 1263], which change in vivo at 25 mg/kg (mice [1]) is on record?
A: Its change in vivo at 25 mg/kg is 10%.

Q: With `COc1cc([N+](=O)[O-])c(Cl)cc1S(=O)(=O)N1CCN(CCO)CC1` [Compound 1290] as the molecule, how does the change in vivo at 25 mg/kg (mice [1]) read?
A: Its change in vivo at 25 mg/kg is 17%.

Q: With `COc1cc([N+](=O)[O-])c(Cl)cc1S(=O)(=O)N1CCN(C)CC1` [Compound 1292] as the molecule, how does the LD50 ([3]; ip) read?
A: The LD50 was 650 mg/kg.

Q: What about the LD0 (mice [4]; mice, route IP) of the same molecule?
A: The LD0 was 400 mg/kg.

Q: And the LD100 (mice [4]; mice, route IP)?
A: The LD100 was 1 000 mg/kg.

Q: And the “ratio between the effective dose and the toxicity” value (mice [4])?
A: Its value is “satisfactory”.

Q: With `COc1cc(OC)c(S(=O)(=O)N2CCN(CCO)CC2)cc1S(C)(=O)=O` [Compound 1294] as the molecule, how does the change in vivo at 25 mg/kg (mice [1]) read?
A: The change in vivo at 25 mg/kg was 17%.

Q: Which LD50 ([3]; ip) does the source give for `COc1cc(OC)c(S(=O)(=O)N2CCN(CC(O)CO)CC2)cc1Cl` (centres unmarked) [Compound 1295] here?
A: Its LD50 is 820 mg/kg.

Q: And the LD0 (mice [4]; mice, route IP)?
A: Its LD0 is 600 mg/kg.

Q: And the LD100 (mice [4]; mice, route IP)?
A: The LD100 was 1 000 mg/kg.

Q: What about the “ratio between the effective dose and the toxicity” value (mice [4]) of the same molecule?
A: The value was “satisfactory”.

Q: What does the source list for `COc1cc(OC)c(S(=O)(=O)N2CCN(c3ccc(F)cc3)CC2)cc1S(C)(=O)=O` [Compound 1298]?
A: ratio between the effective dose and the toxicity (mice [2]): satisfactory; LD50 ([3]; ip): > 2000 mg/kg; LD0 (mice [4]; mice, route IP): > 2 000 mg/kg; LD100 (mice [4]; mice, route IP): > 2 000 mg/kg

Q: For `COc1ccc(Br)cc1S(=O)(=O)N1CCN(c2ccc(F)cc2)CC1` [Compound 1299], which change in vivo at 25 mg/kg (mice [1]) is on record?
A: Its change in vivo at 25 mg/kg is 28%.

Q: For `O=C(c1ccccc1)N1CCCN(S(=O)(=O)c2ccc(Cl)c(C(F)(F)F)c2)CC1` [Compound 1393], which “ratio between the effective dose and the toxicity” value (mice [2]) is on record?
A: The value was “satisfactory”.

Q: And the LD0 (mice [4]; by oral route)?
A: The LD0 was > 2 000 mg/kg.

Q: For `O=S(=O)(c1cc(C(F)(F)F)cc(C(F)(F)F)c1)N1CCNCC1` [Compound 1400], which “ratio between the effective dose and the toxicity” value (mice [2]) is on record?
A: Its value is “satisfactory”.

Q: What about the LD50 [3] of the same molecule?
A: Its LD50 is about 700 mg/kg.

Q: And the LD0 (mice [4]; route not given)?
A: Its LD0 is about 250 mg/kg.

Q: With `O=C(c1ccco1)N1CCN(S(=O)(=O)c2ccc(Cl)c(C(F)(F)F)c2)CC1` [Compound 1402] as the molecule, how does the “ratio between the effective dose and the toxicity” value (mice [2]) read?
A: The value was “satisfactory”.

Q: What about the LD0 (mice [4]; by oral route) of the same molecule?
A: Its LD0 is > 2 000 mg/kg.

Q: With `O=C(c1ccco1)N1CCN(S(=O)(=O)c2cc(C(F)(F)F)cc(C(F)(F)F)c2)CC1` [Compound 1403] as the molecule, how does the change in vivo at 25 mg/kg (mice [1]) read?
A: The change in vivo at 25 mg/kg was 22%.

Q: Which change in vivo at 25 mg/kg (mice [1]) does the source give for `O=C(c1ccco1)N1CCCN(S(=O)(=O)c2ccc(Cl)c(C(F)(F)F)c2)CC1` [Compound 1405] here?
A: Its change in vivo at 25 mg/kg is 14%.

Q: For `O=C(N1CCN(S(=O)(=O)c2ccc(Cl)c(C(F)(F)F)c2)CC1)C12CC3CC(CC(C3)C1)C2` [Compound 1406], which change in vivo at 25 mg/kg (mice [1]) is on record?
A: Its change in vivo at 25 mg/kg is 24%.

Q: Which change in vivo at 25 mg/kg (mice [1]) does the source give for `O=S(=O)(c1cc(C(F)(F)F)cc(C(F)(F)F)c1)N1CCCNCC1` [Compound 1408] here?
A: The change in vivo at 25 mg/kg was 22%.

Q: With `COc1cc(N)c(Cl)cc1S(=O)(=O)N1CCN(C)CC1` [Compound 1427, 1'1-[(4-amino 5-chloro 2-methoxy)benzenesulfonyl]4-methyl piperazine] as the molecule, how does the “ratio between the effective dose and the toxicity” value (mice [2]) read?
A: The value was “satisfactory”.

Q: What about the LD50 [3] of the same molecule?
A: The LD50 was about 800 mg/kg.

Q: What about the LD0 (mice [4]; route not given) of the same molecule?
A: Its LD0 is about 500 mg/kg.

Q: For `O=S(=O)(c1cc(C(F)(F)F)cc(C(F)(F)F)c1)N1CCCN(CC(O)CO)CC1` (centres unmarked) [Compound 1488, 4-(2.3-dihydroxypropyl)1-[(3,5-ditrifluoromethyl)benzenesulfonyl]homopiperazine], which change in vivo at 25 mg/kg (mice [1]) is on record?
A: Its change in vivo at 25 mg/kg is 10%.

Q: For `O=S(=O)(c1cccc(C(F)(F)F)c1)N1CCN(CCCO)CC1` [Compound 1500], which change in vivo at 25 mg/kg (mice [1]) is on record?
A: The change in vivo at 25 mg/kg was 25%.

Q: With `O=C(c1ccccc1)N1CCN(S(=O)(=O)c2cccc(C(F)(F)F)c2)CC1` [Compound 1502] as the molecule, how does the change in vivo at 25 mg/kg (mice [1]) read?
A: The change in vivo at 25 mg/kg was 20%.

Q: With `O=C(N1CCN(S(=O)(=O)c2cccc(C(F)(F)F)c2)CC1)C12CC3CC(CC(C3)C1)C2` [Compound 1503] as the molecule, how does the change in vivo at 25 mg/kg (mice [1]) read?
A: The change in vivo at 25 mg/kg was 28%.

Q: For `O=S(=O)(c1cccc(C(F)(F)F)c1)N1CCNCC1` [Compound 1504], which change in vivo at 25 mg/kg (mice [1]) is on record?
A: The change in vivo at 25 mg/kg was 26%.

Q: For `O=S(=O)(c1cccc(C(F)(F)F)c1)N1CCN(CCO)CC1` [Compound 1505], which change in vivo at 25 mg/kg (mice [1]) is on record?
A: Its change in vivo at 25 mg/kg is 35%.
